Assay results from the CATMoS acute toxicity set (Mansouri et al. 2021).

Experiment: GHS categories as the set defines them, by LD50: 1 up to 5, 2 up to 50, 3 up to 300, 4 up to 2000, 5 above 2000 mg/kg
Settings: rat; in vivo; po

Row | Compound | GHS category
1 | CC1CC(NC(N)=O)NC(=O)N1 (configuration not stated) | 5
2 | CCC[C@H]1CCO[C@@H](C)S1 | 5
3 | CCCCC(=O)O[C@]1(C(=O)CO)[C@@H](C)C[C@H]2[C@@H]3CCC4=CC(=O)C=C[C@]4(C)[C@@]3(F)[C@@H](O)C[C@@]21C | 5
4 | C[C@@H]1CO[C@@](Cn2cncn2)(c2cc3cc(Cl)ccc3o2)O1 | 4
5 | CCn1cc(C(=O)O)c(=O)c2cnc(N3CCNCC3)nc21 | 5
6 | COC(=O)C(C=O)c1ccccc1 (configuration not stated) | 4
7 | CN(C)c1ccc(NC(=O)CCCSc2nnnn2C)cc1 | 4
8 | Cc1cc(C)c(S(=O)(=O)O)cc1N=Nc1cc(S(=O)(=O)O)c2ccccc2c1O | 5
9 | CCOP(=S)(OCC)N(SN(C)C(=O)ON=C(C)SC)C1CCCCC1 | 3
10 | O=C1OC(=O)c2c(Cl)c(Cl)c(Cl)c(Cl)c21 | 5
11 | C[SiH](C)O[SiH](C)C | 5
12 | O=C(OOC(=O)c1ccc(Cl)cc1Cl)c1ccc(Cl)cc1Cl | 5
13 | O=C(O)c1ccccc1Nc1ccc(O)c(C(F)(F)F)c1 | 5
14 | N[C@@H](Cc1cnc[nH]1)C(=O)O | 5
15 | CCOC(=O)c1c(CSc2ccccc2)n(C)c2cc(Br)c(O)c(CN(C)C)c12 | 5
16 | CCCN[C@H]1CCc2nc(N)sc2C1 | 4
17 | COC(=O)C(C)(C)C(=O)OC1=C(C(=O)Nc2ccccn2)N(C)S(=O)(=O)c2cc(Cl)sc21 | 2
18 | CCc1c(Cc2ccc(-c3ccccc3-c3nn[nH]n3)cc2)c(=O)nc2nc[nH]n12 | 4
19 | CC(C)(C1CCC(O)CC1)C1CCC(O)CC1 (configuration not stated) | 5
20 | CCCCCCCCCCCCCCCCCCCCO | 5
21 | Cc1cc(C(C)(C)C)c(O)c(C)c1Cn1c(=O)n(Cc2c(C)cc(C(C)(C)C)c(O)c2C)c(=O)n(Cc2c(C)cc(C(C)(C)C)c(O)c2C)c1=O | 5
22 | NC(=O)Oc1ccc(Cl)cc1C(=O)Oc1ccccc1 | 5
23 | CC(=O)OCC(=O)[C@@]1(O)CC[C@H]2[C@@H]3CCC4=CC(=O)CC[C@]4(C)[C@@]3(F)[C@@H](O)C[C@@]21C | 4
24 | CCCOC(=O)C(C(=O)OCCC)=C1SC2C(S1)N(C)CCN2C (configuration not stated) | 4

Row | Compound | GHS category
25 | Nc1c(I)c(C(=O)O)c(I)c(C(=O)NCC(O)CO)c1I (configuration not stated) | 5
26 | COC1(NC(=O)C2SC(=C(C(N)=O)C(=O)O)S2)C(=O)N2C(C(=O)O)=C(CSc3nnnn3C)CSC21 (configuration not stated) | 5
27 | CNC(=O)C(=NNc1ccc(C)cc1)C(C)=O | 5
28 | CN(C)C(=O)OC1N=C(c2ccccc2)c2cc(Cl)ccc2N(C)C1=O (configuration not stated) | 5
29 | CCOCC(C)OC(C)=O (configuration not stated) | 5
30 | CC(C)C[Si](Cl)(Cl)Cl | 3
31 | CCCCCCCCCCCCCCCCCC(=O)OCC(COC(=O)CCCCCCCCCCCCCCCCC)OC(=O)CCCCCCCCCCCCCCCCC | 5
32 | Oc1cc(O)ncn1 | 5
33 | CC(=O)OC1CCC(NCc2ccccc2N)CC1 (configuration not stated) | 5
34 | NCC[C@H](O)C(=O)N[C@@H]1C[C@H](N)[C@@H](O[C@H]2O[C@H](CN)CC[C@H]2N)[C@H](O)[C@H]1O[C@H]1O[C@H](CO)[C@@H](O)[C@H](N)[C@H]1O | 5
35 | O=C1NCCCN1CN1CCOCC1 | 5
36 | CCCCCCCCO | 5
37 | Cn1c(CCCC(=O)O)nc2cc(N(CCCl)CCCl)ccc21 | 3
38 | CC(C)CCCCCCCCCCCCCCC(=O)OC(C)C | 5
39 | C[C@H]1CCCC(=O)CCCC=Cc2cc(O)cc(O)c2C(=O)O1 | 5
40 | CCN(C(=O)CCCSc1nnnn1C)c1ccccn1 | 4
41 | O=P(OCC(CBr)(CBr)CBr)(OCC(CBr)(CBr)CBr)OCC(CBr)(CBr)CBr | 5
42 | CN1C(CCl)Nc2cc(Cl)c(S(N)(=O)=O)cc2S1(=O)=O (configuration not stated) | 5
43 | CCCC1CCCC(=O)O1 (configuration not stated) | 5
44 | COc1ccccc1N1CCN(/C(N)=N/c2ccc(Cl)c(Cl)c2)CC1 | 4
45 | CC(C)CCCCCCCOC(=O)CCCCCCCC(=O)OCCCCCCCC(C)C | 5
46 | CC(C)Cc1ccc2cc(CC(=O)O)ccc2c1 | 4
47 | CC(O)C1=CCC(C(C)(C)O)CC1O (configuration not stated) | 5
48 | CCCCCCCCC(O)CCO (configuration not stated) | 5

Row | Compound | GHS category
49 | Cc1cc(-c2ccc(N=C=O)c(C)c2)ccc1N=C=O | 5
50 | Brc1c(Br)c(Br)c(-c2c(Br)c(Br)c(Br)c(Br)c2Br)c(Br)c1Br | 5
51 | CC(=O)CC(=O)Nc1ccc(S(=O)(=O)O)cc1 | 5
52 | Cc1cccc2ncc(C(=O)Nc3ccc(Cl)cc3)c(=O)n12 | 3
53 | CC1CC(OC(=O)C(C)(C)Oc2cccc(C(F)(F)F)c2)CC(C)(C)C1 (configuration not stated) | 5
54 | CCCCCCCCC(=O)OCC(CC)(COC(=O)CCCCCCCC)COC(=O)CCCCCCCC | 5
55 | CC1CN(S(=O)(=O)c2cccc3cnccc23)CCN1 (configuration not stated) | 4
56 | COCC1COC(Cn2cncn2)(c2cc3cc(Cl)cc(Cl)c3o2)O1 (configuration not stated) | 4
57 | CCCCC(=O)N(Cc1ccc(-c2ccccc2-c2nnn[nH]2)cc1)[C@@H](C(=O)O)C(C)C | 5
58 | CCOC(=O)C(C)CC (configuration not stated) | 5
59 | Cc1cc(Cl)ccc1-n1c(C)nc2cccc(Cl)c2c1=O | 5
60 | CCCCCCC#CC(OC)OC | 5
61 | NC(N)=Nc1nc2c(s1)CN(C(=O)NC1CC1)CC2 | 4
62 | CCOc1cc(N)c(Cl)cc1C(=O)NCC1CN(Cc2ccc(F)cc2)CCO1 (configuration not stated) | 5
63 | CC(C)C[C@H](N)C(=O)O | 5
64 | Cc1cc(C)c(C=O)c(C)c1 | 5
65 | CCCc1nc2ncnn2c(CCC)c1Cc1ccc(-c2ccccc2-c2nn[nH]n2)cc1 | 4
66 | C=CCC(C)C | 5
67 | CCC(c1cccc(O)c1)C(CC)c1cccc(O)c1 (configuration not stated) | 5
68 | CCCc1c(Cc2ccc(-c3ncccc3-c3nn[nH]n3)cc2)c(=O)nc2nc[nH]n12 | 4
69 | CC(C)=CCN(CC=C(C)C)CCC(C#N)c1cccc2ccccc12 (configuration not stated) | 4
70 | Nc1ccc([N+](=O)[O-])cc1O | 5
71 | CCOC(=O)C(=O)Nc1cc(OC)ncn1 | 4
72 | Cc1ccc(N=Nc2c(O)c(C(=O)O)cc3ccccc23)c(S(=O)(=O)O)c1 | 5

Row | Compound | GHS category
73 | O=S1OCC(CCl)O1 (configuration not stated) | 2
74 | O=S(=O)(O)c1cc(-n2nc3ccc4ccccc4c3n2)ccc1C=Cc1ccccc1 | 5
75 | COC(=O)C(O)(c1cccs1)c1cccs1 | 5
76 | Nc1ccc(CCc2ccc(N)cc2)cc1 | 5
77 | CC/C=C\CCC1(C)CCC(=O)O1 (configuration not stated) | 5
78 | CNC(=O)Oc1cc(C)c(S(C)(=O)=O)c(C)c1 | 4
79 | CCCCc1c(Cc2ccc(-c3ccccc3-c3nn[nH]n3)cc2)c(=O)nc2nc[nH]n12 | 4
80 | ClC1=C(Cl)C2(Cl)C3COCC3C1(Cl)C2(Cl)Cl (configuration not stated) | 5
81 | CCOC(=O)C1(OC(=O)Cc2ccc(Cl)cc2Cl)CCCCC1 | 5
82 | COc1c2ccoc2cc2oc(=O)ccc12 | 5
83 | COc1cc(C(=O)OCc2cccc(COC(=O)c3cc(OC)c(OC)c(OC)c3)n2)cc(OC)c1OC | 5
84 | CCCCCCCCCCCCCCCC(=O)Nc1cc(Cl)c(CC)c(Cl)c1O | 5
85 | CCCCCCCCC=CCCCCCCOC(C)=O | 5
86 | CNC(=O)C(=NNc1ccc([N+](=O)[O-])cc1)C(C)=O | 5
87 | NC[C@H]1O[C@H](O[C@H]2[C@H](O)[C@@H](O[C@H]3O[C@H](CO)[C@@H](O)[C@H](N)[C@H]3O)[C@H](N)C[C@@H]2N)[C@H](N)C[C@@H]1O | 5
88 | CCn1nnnc1CSCCC(N)=O | 4
89 | c1ccc2oc(C3(Cn4ccnc4)OCCCO3)cc2c1 | 4
90 | CC1(C)S[C@@H]2[C@H](NC(=O)C(N)c3ccccc3)C(=O)N2[C@H]1C(=O)OC1OC(=O)c2ccccc21 (some centres not stated) | 4
91 | CC(C)COP(=O)(OCC(C)C)OCC(C)C | 5
92 | Nc1nc(/C(=C/CC(=O)O)C(=O)N[C@@H]2C(=O)N3C(C(=O)O)=CCS[C@H]23)cs1 | 5
93 | CC(=O)C(N=Nc1cccc(OCCOc2ccccc2N=NC(C(C)=O)C(=O)Nc2ccc3[nH]c(=O)[nH]c3c2)c1)C(=O)Nc1ccc2[nH]c(=O)[nH]c2c1 (configuration not stated) | 5
94 | CCOC(=O)c1cnn(-c2ccccc2)c1N | 4
95 | NC(CSCC(=O)O)C(=O)O (configuration not stated) | 5
96 | C=CCCCCC=C | 5

Row | Compound | GHS category
97 | CC(C)=CCCC(C)CCOCC=O (configuration not stated) | 5
98 | CCCCCCCCCCCCCCOC(=O)OOC(=O)OCCCCCCCCCCCCCC | 5
99 | Cn1cc(C(=O)O)c(C(F)F)n1 | 5
100 | Clc1ccc2c(n1)C(c1ccccc1Cl)=NCc1nncn1-2 | 5
101 | CCCN(CCC)c1c([N+](=O)[O-])cc(S(C)(=O)=O)cc1[N+](=O)[O-] | 5
102 | Cc1ccc2c(c1)C(=O)C(C)C2 (configuration not stated) | 5
103 | Cc1cc(C(=O)Nc2ccccc2C)n[nH]1 | 5
104 | Cc1ccc(C2=NCOCS2)cc1 | 4
105 | CCCCCCCC/C=C\CCCCCCCC(=O)OCC(COC(=O)CCCCCCC/C=C\CCCCCCCC)OC(=O)CCCCCCC/C=C\CCCCCCCC | 5
106 | CCCCCCCCCCCCCO[PH](=O)OCCCCCCCCCCCCC | 5
107 | N[C@H](C(=O)O)c1ccc(O)cc1 | 5
108 | CCOC(=O)c1sc(-c2ccc(OCC(C)C)c(C=O)c2)nc1C | 5
109 | O=C1NCCCN1 | 5
110 | CCCc1c(Cc2ccc(-c3ccccc3-c3nn[nH]n3)cc2)c(NCCN2CCOCC2)nc2ncnn12 | 4
111 | O=C1CC(c2ccccc2)c2cc(Br)ccc2O1 (configuration not stated) | 5
112 | C=C(CC)CCCC(C)(C)OC(C)=O | 5
113 | Cc1cc(C)[n+]([N-]C(=O)c2ccc(Cl)c(S(N)(=O)=O)c2)c(C)c1 | 5
114 | CC(C)=CCCC(C)=C1CC=C(C)CC1 | 5
115 | C/C=C/C/C=C\CCCCCCCCOC(C)=O | 4
116 | C[C@H]1C[C@@H]2[C@H]([C@@H](O)C[C@@]3(C)[C@H]2CC[C@]3(O)C(=O)COC(=O)CCC(=O)O)[C@@]2(C)C=CC(=O)C=C12 | 5
117 | CCN1C(=O)CCc2c(OCC(O)CN3CCC(Cc4ccccc4)CC3)cccc21 (configuration not stated) | 4
